Data on 1 molecule can be found in patent US20050037436A1, “Test systems and the use thereof for identifying and characterizing compounds” (priority 2000, published 2005).

The subject of assay [1] is HC110-R. The assay is classed as binding, Haemonchus contortus. The settings on record: renatured; fragment expressed in E. coli. From the text: Since denaturation of proteins is necessary for carrying out SDS-PAGE, there may be destruction of conformation-dependent epitopes. Antibodies or proteins which specifically recognize such epitopes may therefore no longer bind. […] BAY44-4400 differs from PF1022A by 2 morpholine residues which are covalently bonded to the phenyl rings of the two D-phenyllactyl radicals of PF1022A. […] For this purpose, total protein from untransfected HEK-293 cells and HEK-293 cells which transiently express HC110-R-Myc/His, and from the 54 kDa N terminus and the 21 kDa C terminus of HC110-R which were expressed in E. coli, were fractionated by SDS-PAGE, renatured and blotted in the usual way. […] In addition, a partially renatured SDS polyacrylamide gel with the protein fractions of untransfected HEK-293 cells, HEK-293 cells transiently transfected with HC110-R-Myc/His, and the N terminus of HC110-R expressed in E. coli and total protein from H. contortus was blotted, incubated with PF1022A-biotin and detected using streptavidin HRP.

A further assay relates to nematodes. Conditions: depending on the particular species (Terada, 1992); cited from earlier work.
In the next assay the target is T1, β2-R-GFP (Mus musculus, UniProt P18762).
T1 construct: was fused with a C-terminal EGFP tag by amplifying the full-length cDNA with the P117 mouse 2AR XhoI 5′ primer; expressed in transfected cells; host or cells: HEK-293, transient (pEGFP-N3)
T1 sequence (P18762 whole entry, the tested form may be a part): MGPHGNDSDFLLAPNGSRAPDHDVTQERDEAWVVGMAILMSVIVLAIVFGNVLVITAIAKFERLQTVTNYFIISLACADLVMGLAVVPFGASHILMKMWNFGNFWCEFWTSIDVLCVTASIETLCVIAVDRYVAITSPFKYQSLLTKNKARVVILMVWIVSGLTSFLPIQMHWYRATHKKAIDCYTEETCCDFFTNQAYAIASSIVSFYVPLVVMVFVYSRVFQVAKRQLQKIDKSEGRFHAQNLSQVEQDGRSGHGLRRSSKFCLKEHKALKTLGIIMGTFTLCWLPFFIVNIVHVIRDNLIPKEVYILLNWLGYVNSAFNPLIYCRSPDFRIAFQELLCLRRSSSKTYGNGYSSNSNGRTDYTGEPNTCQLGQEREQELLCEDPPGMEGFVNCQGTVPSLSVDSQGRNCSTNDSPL
As to the kind of experiment: PF1022A binding by FACScan, β2-R-GFP control cells. How it is done: (§1) For this purpose, HEK-293 cells were transiently transfected with HC110-R-GFP or GFP-HC110-R or else transiently cotransfected with HC110-R-Myc/His and GFP. […] 24 h after the transfection, the cells were incubated with biotinylated PF1022A, and PF1022A-bound cells were detected using streptavidin-phycoerythrin and were finally fixed. A negative control of cells transfected with HC110-R-GFP was incubated only with streptavidin-phycoerythrin without PF1022A-biotin.
(§2) Phycoerythrin has—like TRITC—an absorption spectrum which overlaps with EGFP, while the emission spectra are adequately separated, so that both fluorochromes can be excited at only one wavelength. Cell detritus was excluded from the measurement of the fluorescence intensity by setting a ‘gate’ on the main cell population. For quantitative evaluation, the limits were fixed for negative, unstained and positive, GFP-fluorescent cells on the basis of the untransfected and GFP-transfected cells.
(§3) In each case 5×10^5 HEK-293 cells which were not transfected, were transiently transfected with GFP, HC110-R-GFP, GFP-HC110-R, β2-R-GFP and M1-R-GFP, and transiently cotransfected with HC110-R-Myc/His and GFP were incubated, 24 h after the transfection, with 0.5 μg/ml PF1022A-biotin and streptavidin-phycoerythrin (1:300) and then fixed. […]

Assay [2] concerns HC110-R. As to the kind of experiment: PF1022A binding to HC110-R-transfected HEK-293 cells by FACScan. The settings on record: for Phycoerythrin fluorescence: 0.5 μg/ml PF1022A-biotin + streptavidin-phycoerythrin. On the set-up: species or system Haemonchus contortus. On the procedure:
as §1, §2
(§4) In each case 5×10^5 HEK-293 cells which were not transfected, were transiently transfected with GFP, HC110-R-GFP, GFP-HC110-R, β2-R-GFP and M1-R-GFP, and transiently cotransfected with HC110-R-Myc/His and GFP were incubated, 24 h after the transfection, with 0.5 μg/ml PF1022A-biotin and streptavidin-phycoerythrin (1:300) and then fixed. As negative controls, HC110-R-GFP-transfected cells were incubated only with streptavidin-phycoerythrin, without PF1022A-biotin. […] The standard deviation is derived by determining the means of triplicate mixtures.

Another assay deals with HEK-293 cells. As to the kind of experiment: PF1022A binding by FACScan, untransfected and GFP-transfected control cells. Also on record: species or system human. Conditions: for Phycoerythrin fluorescence: 0.5 μg/ml PF1022A-biotin + streptavidin-phycoerythrin. How it is done: as §1, §2, §4
The test system of assay [3] is HC110-R. The assay is classed as cell-based, Haemonchus contortus. The settings on record: 4 ng/ml or 400 ng/ml, 90 minutes preincubation, removed before α-LTX. On the procedure:
The intracellular free Ca^2+ concentration [Ca^2+]i was measured in COS-7 and HEK293 cells transiently transfected with the HC110-R-EGFP or β2-AR-EGFP construct using the calcium imaging method (see also FIG. 11). In each case 2×10^5 COS-7 and HEK293 cells were applied to a 42 mm cover glass coated with 1% gelatine in 55 mm tissue culture dishes with 5 ml of DMEM medium (with 10% FCS and pen/strep). The transfection took place with the aid of the non-liposomal transfection reagent FuGENE 6 (Roche Molecular Biochemicals, Mannheim). […] Constructs of the HC110-R full-length clone with a GFP tag fused in the correct reading frame, and the complete cDNA of the β2-adrenergic receptor which had likewise been provided with a GFP tag at the 3′ end, were transfected.
After the incubation, the cells loaded with Fura-2/AM were examined under an inverted microscope (Zeiss, Axiovert, Germany) and, in parallel with this, in a digital imaging fluorescence microscope (PTI) and differentiated into transfected and untransfected cells at a wavelength of 440 and 490 nm respectively. On average, 5-7 transfected and non transfected cells were selected by fixing an ROI (region of interest). The extinction was measured at 340 nm (calcium-bound Fura-2/AM) and 380 nm (free Fura-2/AM), and the emission was measured at 510 nm. Evaluation took place using the Image Master 1.x software by forming the quotient of 340:510 nm, 380:510 nm and the ratio of 340/380:510 nm (background corrected images) as a function of the agent added.
Agents were always added 6 min after starting the measurement by removing an appropriate volume of Na^+ HBS buffer and pipetting the agent directly into the sample vessel for a further 30 to 50 min. The total volume in the sample vessel was constant at 1.5 ml throughout the experiment. […] Addition of CdCl2 and nifedipine took place immediately at the start of the experiment and before addition of α-LTX, and EGTA was added both at the start of the experiment and 4 min after the addition of α-LTX. Dissolved α-LTX was present in a concentration of 300 nM in 50 mM tris-HCl, pH 8.0; BAY 44-4400 was initially dissolved in pure DMSO (stock solutions between 0.004 and 10 μg/ml). The stock solutions were adjusted to the required concentration in the Na^+ HBS buffer. The maximum amount of the active substance BAY 44-4400 which could be dissolved at a final concentration of 0.1% DMSO was found by setting up serial dilutions in Na^+ HBS.
The data were analyzed using the Excel 98 table calculation programme. The results are derived from at least 2-4 reproduced experiments on in each case 4-8 transfected and un-transfected cells.

Assay [4] relates to HC110-R. It is filed as binding, Haemonchus contortus. The settings on record: mixture of N terminus and C terminus expressed in E. coli.
Description: In a control mixture with 4 mg of Dynal beads, TST buffer was added in place of PF1022A. Excess PF1022A-biotin was removed by magnetic separation before a mixture of the HC110-R terminus and C terminus expressed in E. coli and previously purified by affinity chromatography was added. After renewed magnetic separation to remove unbound HC110-R fragments, one aliquot derived from 2 mg, and one from 4 mg, of Dynal beads was fractionated by SDS-PAGE and blotted. Detection of the precipitate took place via the N-terminally fused His tag with a mouse anti-His IgG and a rabbit anti-mouse IgG HRP antibody. […] Nonspecific binding of the N or C terminus of HC110-R to the streptavidin-coupled beads was precluded by adding no biotinylated PF1022A to a reaction mixture.
A further assay addresses T2, M1-R-GFP (Homo sapiens, UniProt P11229).
T2 construct: The full-length cDNA of a human muscarinic receptor 1 (huM1Rez); expressed in transfected cells; host or cells: HEK-293, transient (pEGFP-N3)
T2 sequence (P11229 1-460): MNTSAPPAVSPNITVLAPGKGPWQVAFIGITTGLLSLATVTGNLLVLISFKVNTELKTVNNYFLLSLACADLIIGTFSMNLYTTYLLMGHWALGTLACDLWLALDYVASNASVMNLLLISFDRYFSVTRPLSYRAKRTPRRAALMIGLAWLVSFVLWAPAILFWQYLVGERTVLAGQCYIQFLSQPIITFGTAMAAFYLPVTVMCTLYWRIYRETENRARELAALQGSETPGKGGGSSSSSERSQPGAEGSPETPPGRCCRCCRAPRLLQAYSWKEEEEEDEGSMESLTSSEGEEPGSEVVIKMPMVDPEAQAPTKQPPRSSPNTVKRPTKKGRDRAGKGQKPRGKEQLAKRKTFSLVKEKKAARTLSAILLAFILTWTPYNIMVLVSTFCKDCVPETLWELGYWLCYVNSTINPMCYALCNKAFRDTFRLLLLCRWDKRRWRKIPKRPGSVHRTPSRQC
As to the kind of experiment: PF1022A binding by FACScan, M1-R-GFP control cells. On the procedure:
as §1, §2, §3

On to `CC(C)C[C@H]1C(=O)O[C@H](Cc2ccccc2)C(=O)N(C)[C@@H](CC(C)C)C(=O)O[C@H](C)C(=O)N(C)[C@@H](CC(C)C)C(=O)O[C@H](Cc2ccccc2)C(=O)N(C)[C@@H](CC(C)C)C(=O)O[C@H](C)C(=O)N1C` [PF1022A, cyclo(-D-Lac-L-MeLeu-D-PhLac-L-MeLeu-)2], for which the “binding to 21 kDa C terminus of HC110-R” value with HC110-R [1] was “no specific PF1022A binding”. Besides, the “concentrations at which effect on nematodes is exerted” value in the assay on nematodes was 100 to 800 ng/mL. The Phycoerythrin fluorescence at β2-R-GFP came to 0.8 ± 0.1%; in the assay on HC110-R [2] (plasmid GFP-HC110-R), 2.5 ± 0.3%; in the assay on HC110-R [2] (plasmid HC110-R-GFP, nonspecific staining subtracted), 4.5 ± 0.4%; in the assay on HC110-R [2] (plasmids HC110-R-Myc/His + GFP), 10.3 ± 0.7%; with HEK-293 cells (plasmid GFP), 1.3 ± 0.4%; with HEK-293 cells (untransfected), 0 ± 0%. The Phycoerythrin fluorescence on M1-R-GFP is on record as 1.6 ± 0.1%. For the same molecule, the “percentage of green-fluorescent cells that bind PF1022A” value was determined as 9.9% at β2-R-GFP (cells expressing 2-R-GFP); 44.5% in the assay with HC110-R [2] (cells cotransfected with HC110-R-Myc/His and GFP); 26.8% with HC110-R [2] (cells expressing GFP-HC110-R); 41.2% in the assay on HC110-R [2] (cells expressing HC110-R-GFP); 7.5% in the assay on HEK-293 cells (cells expressing GFP); 19.2% at M1-R-GFP (cells expressing M1-R-GFP). For the same molecule, in the assay with HC110-R [3], the “change in response to α-LTX after preincubation” value is listed as “no significant change in their response to α-LTX”. In the assay with HC110-R [4], the “precipitation of HC110-R fragments” value is recorded as “Only the N-terminal 54 kDa region of HC110-R is precipitated”.
